Experimental data as given in US20230414771A1, “PREPARATION AND USE OF IMMUNOSTIMULATORY CONJUGATED COMPLEXES FOR TARGETED DELIVERY AND ACTIVATION” (YAFEI SHANGHAI BIOLOGY MEDICINE SCIENCE & TECHNOLOGY CO., …, priority 2020, published 2023).
Like-named read-outs stand apart in the source and are kept apart here. Where a SMILES comes first, the peptide text is derived from it. The star is where a group is joined. Doxorubicin(3'-N) = COc1cccc2c1C(=O)c1c(O)c3c(c(O)c1C2=O)C[C@@](O)(C(=O)CO)C[C@@H]3O[C@H]1C[C@H](N*)[C@H](O)[C@H](C)O1; X3 = O=C1C=CC(=O)N1CCOCCOCCC(=O)*; MeOCH2CH2OCH2CO = COCCOCC(=O)*

How the values were obtained:
[1] = test system: CT26 tumor cells; experiment: MTT assay of N-CBP and HSA-QHL-095-N-CBP; format: cell-based; details: 48 hours, CT26 tumor cells and CD8+ T cells seeded
Protocol: After counting the separated and cultured cells, adjust the cell concentration with culture medium, inoculate the cells on a 96-well culture plate with 100 μl cell suspension per well, 100000 cells/well of CD8+ T cells and 20000 cells/well of CT26 tumor cells. The 96-well plate was incubated overnight for 24 hour at 37° C. in a carbon dioxide (5%) incubator. After 24 hours, 100 ul of cell culture medium containing different concentrations of drugs was added to the 96-well culture plate, and control wells (0.1% DMSO) without drugs but with corresponding drug solvent were set, and blank wells (Blank) with medium but without cells were set. Each set was prepared in triplicate and the plates were incubated for 48 hours at 37° C. in a 5% CO2 incubator. After 48 hours, 20 μl MTT (5 mg/ml) was added to each well and the incubation was continued for 4 hours. The culture medium was then gently aspirated, and 150 μl DMSO was added to each well as solvent for dissolution. After dissolution, the absorbance at 490 nm was measured with a microplate reader.

[2] = test system: acidified human breast cancer (MDA-MB435) tumor tissue homogenate; experiment: Activation efficiency of S-C-A linkers in tumor tissue homogenate, HPLC; format: biochemical; details: C is AAN, 1 mg/ml, homogenate pH 6.0, 37° C.
Protocol: When C is AAN, the activation of the different S-C-A linkers and the control linker is evaluated in an activation assay. They were dissolved and diluted tenfold using S-C-A conjugates to a concentration of 0.1 mM/ml. The sample compounds were added at a concentration of 1 mg/ml to 100 μg of acidified human breast cancer (MDA—MB435) tumor tissue homogenate (pH 6.0) at 37° C. The enzyme in the tumor tissue homogenate was released and detected by HPLC to compare the efficiency of activation of the linker by the tumor tissue.
The effect of the D-type tripeptide on the activation efficiency was examined in comparison to the native peptide sequence linker cleaved by Legumain, S1 in MI-S is —CH2CH2—CONH—, S2: 2 peg.

[3] = test system: M2 macrophages; experiment: Cytotoxicity screening, inhibition rate of M2 macrophages at 10 uM; format: cell-based, C57BL/6 mice; details: 10 uM drug per well, 3 wells, relative to the drug-free group
Protocol: After the cell count in Example 13, the cell concentration was adjusted with the culture medium, and the cells were seeded in a 96-well culture plate at […] of cell suspension per well, wherein the seeding concentration of CD8+ T cells was 100000 cells/well, and the seeding concentration of M2 macrophages was 20000 cells/well. The 96-well plate was incubated overnight for 24 hour at 37° C. in a carbon dioxide (5%) incubator. After 24 hours, 100 ul of cell culture solutions containing different concentrations of drugs were added to the 96-well culture plate. At the same time, a control well (0.1% DMSO) with no drug added and only the corresponding drug solvent and a zero-adjusted well (Blank) with only medium and no cells added was set. Each set was prepared in triplicate and the plates were incubated for 48 hours at 37° C. in a 5% CO2 incubator. After 48 hours, 20 μl MTT (5 mg/ml) was added to each well and the incubation was continued for 4 hours. The culture medium was then gently aspirated, and 150 μl DMSO was added to each well as solvent for dissolution. After dissolution, the absorbance at 490 nm was measured with a microplate reader.
Cytotoxicity screening experiments for some compounds were performed for M2 macrophage inhibition as in embodiment 14.

[4] = Water solubility test (observation and HPLC); format: physicochemical; details: thermodynamic from solid
Protocol: The compounds prepared in accordance with the examples of the disclosure and the reference compounds C1, C2, C3 and C4 were lyophilized (−70° C.).

[5] = test system: Human hepatoma HepG2 cells; experiment: Human liver cancer HepG2 tumors in nude mice; format: in vivo; details: for inhibition in vivo at 54 µmol/kg: HepG2, iv, 672 h
Protocol: • 1. Animals: nude mice aged 6-8 weeks, all female. • 2. Preparation of tumor models
Human hepatoma HepG2 cells were purchased from ATCC and identified according to the instructions provided. […] Randomization was performed when the tumor size reached 100 mm^3.
Treatment was then initiated, and the day of initiation of treatment was counted as Day 1. • 3) Treatment process
According to the clinical application of the corresponding compound, the drug was administered intravenously (IV). The compound and the control drug were administered at a dose of 54 umol/kg, and DOX could only be administered at a dose of 18 umol/kg due to toxicity limitations.

[6] = test system: HT1080 tumors; experiment: HT1080 tumor model in nude mice, 36 umol/kg; format: in vivo; details: for inhibition in vivo at 36 µmol/kg: Mus musculus, read-out: Tumor inhibition rate Day 28
Protocol: • 1. Animals: nude mice aged 6-8 weeks, all female. • 2. Preparation of tumor models • 1) HT1080 cells were purchased from ATCC and characterized according to the instructions provided. […] Randomization was performed when the tumor size reached 100 mm^3. Treatment was then initiated, and the day of initiation of treatment was counted as Day 1. • 3) Treatment process
According to the clinical application of the corresponding compound, the drug was administered intravenously (IV). The compounds indicated in the table were administered at a low dose and at the same dose of 36 umol/kg.

[7] = 54 umol/kg IV once a week for 4 weeks
[8] = Mus musculus, read-out: Tumor inhibition rate (%) Day 28
[9] = 36 umol/kg IV once a week for 3 weeks

Row | Compound | Inhibition rate of M2 macrophages [3] [%] | solubility [4] [µg/mL] | also measured
1 | [NH3+][Pt-2]1([NH3+])[O]C(=O)C2(CNC2)C(=O)[O]1 [N-CBP] |  |  | in vitro cytotoxicity (FIGS. 13 and 14) [1]: stronger than carboplatin and oxaliplatin and weaker than cisplatin
2 | COCCOCC(=O)N[C@@H](C)C(=O)N[C@@H](C)C(=O)N[C@@H](CC(N)=O)C(=O)N[C@@H](CC(C)C)C(=O)N[C@H]1C[C@H](O[C@H]2C[C@](O)(C(=O)CO)Cc3c(O)c4c(c(O)c32)C(=O)c2c(OC)cccc2C4=O)O[C@@H](C)[C@H]1O [C4 PEG-AANL-DOX, reference compound] (MeOCH2CH2OCH2CO-AANL-{Doxorubicin(3'-N)}) | 10.5 | < 5000 | Activation efficiency (%) ([2]; Table 2-3): 66.9%; Tumor volume (mm^3) Day 28 [5, 7]: 848.7 ± 347.5 mm^3; inhibition in vivo at 54 µmol/kg [5, 8]: 70.7%
3 | CC(NC(=O)CCOCCOCCOCCOCCNC(=O)CCN1C(=O)C=CC1=O)C(=O)NC(C)C(=O)NC(CC(N)=O)C(=O)Nc1ccc(COC(=O)N2CC3(C2)C(=O)[O][Pt-2]([NH3+])([NH3+])[O]C3=O)cc1 (stereo not shown) [QHL-092-N-CBP] | 75.8 | > 10000 | 
4 | CC(NC(=O)CCOCCOCCOCCOCCOCCOCCNC(=O)CCN1C(=O)C=CC1=O)C(=O)NC(C)C(=O)NC(CC(N)=O)C(=O)Nc1ccc(COC(=O)N2CC3(C2)C(=O)[O][Pt-2]([NH3+])([NH3+])[O]C3=O)cc1 (stereo not shown) [QHL-095-N-CBP] | 68.7 | > 10000 | 
5 | CC(NC(=O)CCCN1C(=O)C=CC1=O)C(=O)NC(C)C(=O)NC(CC(N)=O)C(=O)Nc1ccc(COC(=O)N2CC3(C2)C(=O)[O][Pt-2]([NH3+])([NH3+])[O]C3=O)cc1 (stereo not shown) [QHL-143-N-CBP] | 78.4 | > 10000 | 
6 | CC(NC(=O)CCOCCOCCOCCNC(=O)CCN1C(=O)C=CC1=O)C(=O)NC(C)C(=O)NC(CC(N)=O)C(=O)Nc1ccc(COC(=O)N2CC3(C2)C(=O)[O][Pt-2]([NH3+])([NH3+])[O]C3=O)cc1 (stereo not shown) [QHL-089-N-CBP] | 97.4 | > 10000 | 
7 | COc1cccc2c1C(=O)c1c(O)c3c(c(O)c1C2=O)C[C@@](O)(C(=O)CO)C[C@@H]3O[C@H]1C[C@H](NC(=O)[C@H](CC(C)C)NC(=O)[C@H](CC(N)=O)NC(=O)[C@H](C)NC(=O)[C@H](C)N)[C@H](O)[C@H](C)O1 [AANL-DOX, reference compound] (H-AANL-{Doxorubicin(3'-N)}) | 16.9 |  | Activation efficiency (%) ([2]; Table 2-1): 42.1%; Tumor volume (mm^3) Day 28 [6, 9]: 318.5 ± 197.6 mm^3; inhibition in vivo at 36 µmol/kg ([6]; HT-1080, iv, 672 h): 81.8%; Tumor volume (mm^3) Day 28 [5, 7]: 1564 ± 689.4 mm^3; inhibition in vivo at 54 µmol/kg [5, 8]: 46%
8 | COc1cccc2c1C(=O)c1c(O)c3c(c(O)c1C2=O)C[C@@](O)(C(=O)CO)C[C@@H]3O[C@H]1C[C@H](NC(=O)[C@H](CC(C)C)NC(=O)[C@H](CC(N)=O)NC(=O)[C@H](C)NC(=O)[C@H](C)NC(=O)[C@H](CCC(=O)O)NC(=O)CCOCCOCCN2C(=O)C=CC2=O)[C@H](O)[C@H](C)O1 [QHL-021-DOX] (X3-EAANL-{Doxorubicin(3'-N)}) | 68.6 |  | 
9 | COc1cccc2c1C(=O)c1c(O)c3c(c(O)c1C2=O)C[C@@](O)(C(=O)CO)C[C@@H]3O[C@H]1C[C@H](N)[C@H](O)[C@H](C)O1 [DOX, doxorubicin, reference compound] |  |  | inhibition at 10 µM ([3]; Mus musculus, Macrophage): 12.6%; Tumor volume (mm^3) Day 28 [6, 9]: 754.4 ± 587.4 mm^3; inhibition in vivo at 36 µmol/kg ([6]; HT-1080, 672 h, 36 umol/kg IV once a week for 3 weeks): 56.8%; Tumor volume (mm^3) Day 28 ([5]; DOX 18 umol/kg IV (toxicity limitations)): 1683.4 ± 1087.4 mm^3; inhibition in vivo at 18 µmol/kg ([5]; Mus musculus, HepG2, 672 h, DOX 18 umol/kg IV (toxicity limitations), read-out: Tumor inhibition rate (%) Day 28): 41.9%
10 | CC(NC(=O)CCCCCN1C(=O)C=CC1=O)C(=O)NC(C)C(=O)NC(CC(N)=O)C(=O)Nc1ccc(COC(=O)N2CC3(C2)C(=O)[O][Pt-2]([NH3+])([NH3+])[O]C3=O)cc1 (stereo not shown) [QHL-140-N-CBP] | 89.5 | > 10000 | 
